Laboratory results from patent USH1209H, “No-carrier-added (18F)-N-methylspiroperidol” (The United States of America as represented by the United …, priority 1985, dated 1993).

Assays:
[1] = system: dopamine receptors; assay: PETT baboon studies: striatum and cerebellum radioactivity after i.v. [^18 F]-N-methylspiroperidol, with (-)- or (+)-butaclamol pretreatment; details: for effect of butaclamol pretreatment on striatal distribution of [^18 F]-N-methylspiroperidol: 0.5 mg/kg i.v. pretreatment
Text: (§1) A young adult (12 kg) female baboon (Papio anubis) was anesthesized initially with ketamine and subsequently maintained under halothane/nitrous oxide anesthesia for two PETT studies. […] Pett scans were made continually for 4 hrs from the time of radioisotope injection.

[2] = system: dopamine receptor; details: cited from earlier work; for prevention of striatal retention of [^18 F]spiroperidol and [^18 F]benperidol: prior administration of butaclamol enantiomer; for retention by the striatum compared with [^18 F]haloperidol: region of high dopamine receptor density
[3] = Baboon plasma analyses (total plasma radioactivity clearance and unchanged radioligand); details: baboon, plasma, plasma radioactivity due to unaltered radioligand, baboon plasma, 10 mins after injection
Text: as §1
Blood was sampled from the femoral artery at initial intervals of 5 secs. Aliquots of plasma were counted to determine the total plasma radioactivity of clearance curves.

[4] = Metabolic stability and uptake in rat brain (striatum, cerebellum); assay type: in vivo, rat (male BNL R strain); details: rat brain

| Compound | effect of butaclamol pretreatment on striatal distribution of [^18 F]-N-methylspiroperidol [1] | prevention of striatal retention of [^18 F]spiroperidol and [^18 F]benperidol [2] | crossing of the blood brain barrier compared with [^18 F]haloperidol ([2]; in vivo) | retention by the striatum compared with [^18 F]haloperidol [2] | also measured |
| --- | --- | --- | --- | --- | --- |
| CC(C)(C)C1(O)CCN2CC3c4ccccc4CCc4cccc(c43)C2C1 (single isomer, unassigned; (-)) [(-)-butaclamol, reference compound] | normal distribution of radioligand | not | – | – | – |
| O=C(CCCN1CCC(n2c(=O)[nH]c3ccccc32)CC1)c1ccc([18F])cc1 [[^18 F]benperidol] | – | – | to a lesser extent than [^18 F]haloperidol | retained to a greater degree by the striatum | – |
| CC(C)(C)C1(O)CCN2CC3c4ccccc4CCc4cccc(c43)C2C1 (single isomer, unassigned; (+)) [(+)-butaclamol, reference compound] | stereospecific blocking of dopamine receptors in the striatum | prevented | – | – | – |
| O=C(CCCN1CCC2(CC1)C(=O)NCN2c1ccccc1)c1ccc([18F])cc1 [[^18 F]spiroperidol] | – | – | to a lesser extent than [^18 F]haloperidol | retained to a greater degree by the striatum | specifically bound component of radioactivity in the striatum (striatum minus cerebellum) ([1]; 4 hrs after injection): still increasing at 4 hrs after injection; remaining at 10 min [3]: 72%; metabolism in the rat brain [4]: very little metabolism; uptake into the brain ([2]; baboons): 0.5-1.0 % of the injected dose; clearance from the striatal areas ([2]; up to 8 hrs. after injection): no clearance |
| O=C(CCCN1CCC(O)(c2ccc(Cl)cc2)CC1)c1ccc(F)cc1 [haloperidol] | – | – | – | – | brain uptake compared with spiroperidol or benperidol ([2]; in vivo): higher than spiroperidol or benperidol; egress from the brain ([2]; in vivo): rapid egress; nonspecific binding ([2]; in vivo): relatively high nonspecific binding |
